Laboratory results from ChEMBL document CHEMBL4392854, “Discovery, synthesis, biological evaluation and molecular docking study of (R)-5-methylmellein and its analogs as selective monoamine oxidase A inhibitors” (Bioorg Med Chem, 2019).

Key:
[1] = biological target: T1, Amine oxidase [flavin-containing] A (Homo sapiens, UniProt P21397); experiment: Tight binding competitive inhibition of human recombinant MAOA using 50 uM to 1000 uM kynuramine as substrate incubated for 10 mins by UPLC-ESI-MS/MS analysis based kinetic analysis
T1 sequence (P21397 whole entry): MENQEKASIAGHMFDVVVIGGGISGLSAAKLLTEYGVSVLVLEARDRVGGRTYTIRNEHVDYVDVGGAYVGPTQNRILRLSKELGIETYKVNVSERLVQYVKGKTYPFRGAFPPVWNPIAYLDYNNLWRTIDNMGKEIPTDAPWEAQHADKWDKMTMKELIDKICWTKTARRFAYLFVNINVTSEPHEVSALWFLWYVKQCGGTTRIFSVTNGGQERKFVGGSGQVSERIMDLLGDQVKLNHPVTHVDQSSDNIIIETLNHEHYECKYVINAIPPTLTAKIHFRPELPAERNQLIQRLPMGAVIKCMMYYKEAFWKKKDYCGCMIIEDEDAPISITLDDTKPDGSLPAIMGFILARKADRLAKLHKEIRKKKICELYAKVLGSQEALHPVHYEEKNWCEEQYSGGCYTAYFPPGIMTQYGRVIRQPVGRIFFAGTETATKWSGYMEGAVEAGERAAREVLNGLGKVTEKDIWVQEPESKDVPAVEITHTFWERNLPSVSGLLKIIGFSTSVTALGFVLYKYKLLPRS

[2] = biological target: T1, Amine oxidase [flavin-containing] A; experiment: Tight-binding competitive inhibition of human recombinant MAOA using kynuramine as substrate incubated for 10 mins by UPLC-ESI-MS/MS analysis based Lineweaver-Burk plot kinetic analysis
[3] = biological target: T2, Amine oxidase [flavin-containing] B (Homo sapiens, UniProt P27338); experiment: Inhibition of human recombinant MAOB using kynuramine as substrate incubated for 10 mins by UPLC-ESI-MS/MS analysis
T2 sequence (P27338 whole entry): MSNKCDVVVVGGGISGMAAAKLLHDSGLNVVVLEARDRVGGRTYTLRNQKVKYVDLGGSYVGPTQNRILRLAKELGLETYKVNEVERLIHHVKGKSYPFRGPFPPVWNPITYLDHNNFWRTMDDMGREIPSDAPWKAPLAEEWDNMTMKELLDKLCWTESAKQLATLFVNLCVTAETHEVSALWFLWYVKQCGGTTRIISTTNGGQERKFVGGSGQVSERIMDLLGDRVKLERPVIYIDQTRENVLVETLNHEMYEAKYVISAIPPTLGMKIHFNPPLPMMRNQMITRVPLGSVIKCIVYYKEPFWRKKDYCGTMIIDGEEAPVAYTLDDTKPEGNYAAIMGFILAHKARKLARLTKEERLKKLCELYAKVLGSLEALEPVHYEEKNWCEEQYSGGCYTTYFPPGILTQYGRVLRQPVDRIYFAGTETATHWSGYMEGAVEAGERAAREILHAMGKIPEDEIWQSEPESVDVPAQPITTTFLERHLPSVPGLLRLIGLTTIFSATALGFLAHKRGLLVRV

[4] = biological target: T1, Amine oxidase [flavin-containing] A; experiment: Inhibition of human recombinant MAOA using kynuramine as substrate incubated for 10 mins by UPLC-ESI-MS/MS analysis
[5] = species: Homo sapiens; experiment: Selectivity index, ratio of IC50 for human recombinant MAOB to IC50 for human recombinant MAOA
[6] = biological target: T1, Amine oxidase [flavin-containing] A; experiment: Inhibition of human recombinant MAOA using kynuramine as substrate incubated for 10 mins by UPLC-ESI-MS/MS analysis based Michaelis-Menten plot kinetic analysis
[7] = biological target: T1, Amine oxidase [flavin-containing] A; experiment: Inhibition of human recombinant MAOA using kynuramine as substrate incubated for 10 mins by UPLC-ESI-MS/MS analysis based Eadie-Hofstee plot analysis

CC[C@@H]1Cc2c(C)cc(-c3cncnc3)c(O)c2C(=O)O1 was tested, and the “inhibition (INH)” value [1] was “Active”, the “inhibition (INH)” value [2] was “Active” and the IC50 [3] was > 50000 nM. For the same molecule, the IC50 [4] was 60 nM, the Ratio IC50 [5] was > 830 and the “inhibition (INH)” value [6] was “Active”. For the same molecule, the “inhibition (INH)” value [7] was “Active”.
